# Measurements from patent US11661398B2, “Cellular transport system for transferring a sulfonic acid construct carrying a cargo into the cytoplasm of a cell” (Scientist of Fortune, S.A., priority 2017, dated 2023).
# Entries after “also recorded” stand apart in the source; their conditions may differ. Structures can show the parent of a compound that is named as a salt.
# Tests used:
# EcGGT ΔN24 D433N = target: T1, EcGGT ΔN24 D433N (Escherichia coli, UniProt P18956, D433N); experiment: Colorimetric GGT assay in whole cell lysates; type: biochemical, E. coli; conditions: whole cell lysate, 4 mM substrate, 50 mM Tris-HCl (pH 9.0), 410 nm
# T1 construct: made in house; host or cells: E. coli (pACT3 plasmid); assayed in whole cell lysate
# Text: To test for the desired activity a colorimetric enzyme assay was chosen and the substrate sulfobutanoyl-p-nitroanilide was synthesized for this purpose. Hydrolysis of this colorless substrate by a GGT variant into sulfobutanoic acid and the yellow dye 4-nitroaniline can be quantified photometrically at 410 nm. For that, cytoplasmic GGT variants containing an N-terminal 6×His-tag were first expressed from E. coli (EcGGT ΔN24) and Pseudomonas nitroreducens (PnGGT ΔN24), as well as EcGGT ΔN24 D433N and the corresponding mutant variant PnGGT ΔN24 D405N. Position D405 of PnGGT was identified to fulfill the same function as position D433 of EcGGT by sequence alignment and homology modeling between EcGGT and PnGGT. Then the ability of whole cell lysates containing the respective enzymes was tested to hydrolyze L-glutamic acid γ-(3-carboxy-4-nitroanilide) or sulfobutanoyl-p-nitroanilide.
# PnGGT ΔN24 = PnGGT ΔN24 (Pseudomonas nitroreducens, UniProt E0D5C2); experiment: Kinetic measurements with purified PnGGT ΔN24; type: biochemical
# Protocol: (§1) For the experiments relating to the sulfonate based synthetic transport system, purification of PnGGT ΔN24 and PnGGT ΔN24 D405N containing an N-terminal 6×His-tag was performed according to previous reports (Van Dyke et al., 1992) using Ni-NTA Superflow (Qiagen, Hilden, Germany). For kinetic studies, PnGGT variants were purified with the aid of the 6×His-tag located at the N-terminal end of the large subunit following the same procedure. To exchange the buffer, purified proteins were dialyzed against 50 mM Tris/HCl (pH 7.0).
# (§2) To determine the kinetic parameters of PnGGT ΔN24 and PnGGT ΔN24 D405N the purified enzymes were preincubated in 50 mM Tris-HCl (pH 9.0). To start the reaction, varying concentrations of the substrates L-glutamic acid γ-(3-carboxy-4-nitroanilide) or sulfobutanoyl-p-nitroanilide were added to the mixtures. The results were evaluated using GraphPad Prism (GraphPad Software, La Jolla, Calif., USA).
# PnGGT* P505T [1] = experiment: Sulfobutanoyl-p-nitroanilide hydrolysis kinetics; type: biochemical, Pseudomonas nitroreducens; conditions: 50 mM Tris/HCl (pH 7.0)
# Protocol: FIG. 31. Sulfobutanoyl-p-nitroanilide hydrolysis kinetics of PnGGT* P505T. The kinetic parameters of PnGGT* P505T were determined in 50 mM Tris/HCl (pH 7.0) with the substrate sulfobutanoyl-p-nitroanilide added to the following concentrations: 50, 100, 250, 500, 750, 1000, 1500 and 2000 μM. […] Fitting of the kinetic data was performed with SigmaPlot v.12.2. Dots represent the average of three independent measurements with standard deviations shown as error bars.
# as §1
# PnGGT* D385Y = experiment: GGT* activity assay with cell free extracts of PnGGT* mutant variants; type: biochemical, Pseudomonas nitroreducens; conditions: 2 mM substrate
# Protocol: (§3) FIG. 29. Expression analysis of selected PnGGT* mutant variants. Strain TK018 was transformed with the empty vector pACT3, the parent plasmid pPnGGT* or selected mutant variants thereof and grown in LB medium to early exponential phase. Synthesis of the PnGGT* variants was induced for 4 hours by adding 0.5 mM IPTG to the culture. (a) GGT* activity assays with cell free extracts and 2 mM of the substrate sulfobutanoyl-p-nitroanilide. […] Bars represent the average of three independent measurements with standard deviations shown as error bars. (b) SDS-PAGE of cell free extracts to confirm loading of similar protein amounts. (c) Western Blot of cell free extracts with an antibody directed against the large subunit of PnGGT* (38.5 kDa). Mutant variants Y167V Q168P and Y167H Q168G were synthesized slightly less efficiently than PnGGT*. All other mutant variants were synthesized with similar efficiency as PnGGT*.
# PnGGT* P505T [2] = experiment: as above; type: biochemical, Pseudomonas nitroreducens; conditions: 2 mM substrate, sodium salt
# Protocol: as §3
# PnGGT ΔN24 D405N = target: T2, PnGGT ΔN24 D405N (Pseudomonas nitroreducens, UniProt E0D5C2, D405N); experiment: Kinetic measurements with purified PnGGT ΔN24 D405N; type: biochemical; conditions: purified enzyme, 50 mM Tris-HCl (pH 9.0)
# T2 sequence (E0D5C2 with tags, fused parts or gaps D405N): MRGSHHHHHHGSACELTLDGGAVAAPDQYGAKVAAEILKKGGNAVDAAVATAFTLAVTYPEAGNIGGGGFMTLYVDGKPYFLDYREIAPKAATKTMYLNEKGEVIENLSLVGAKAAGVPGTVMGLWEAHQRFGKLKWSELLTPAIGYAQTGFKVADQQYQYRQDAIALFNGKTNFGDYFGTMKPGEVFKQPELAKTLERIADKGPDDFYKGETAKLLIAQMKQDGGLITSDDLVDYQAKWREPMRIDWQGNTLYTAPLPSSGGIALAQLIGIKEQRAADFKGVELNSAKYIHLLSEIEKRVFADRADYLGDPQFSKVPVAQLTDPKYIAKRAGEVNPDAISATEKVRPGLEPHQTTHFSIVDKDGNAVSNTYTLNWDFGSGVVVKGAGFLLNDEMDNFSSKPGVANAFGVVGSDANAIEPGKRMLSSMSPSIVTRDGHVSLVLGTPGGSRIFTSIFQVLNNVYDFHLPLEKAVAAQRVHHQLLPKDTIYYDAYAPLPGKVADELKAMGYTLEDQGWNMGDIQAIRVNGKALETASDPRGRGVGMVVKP
# Protocol: as §1, §2
# TK082 = experiment: In vivo hydrolysis of sulfobutanoyl-p-nitroanilide and sulfobutanoyl-AMC; type: cell-based, E. coli; conditions: 0.5 mM compound, different plasmid combinations
# Protocol: Strain TK082 was transformed with plasmids as indicated in the text and grown at 37° C. in MS minimal medium supplemented with 0.5% glucose, 1 mM MgSO4 and 0.4 mM L-leucine to an OD600 of 0.5. At that stage, the synthesis of PnGGT* and/or SsuABC was induced for 2 hours by adding 0.5 mM IPTG and 100 ng mL^−1 aTc. Following this synthesis period, cells were washed in the same medium to remove proteins that had been released into the medium by cell lysis. After an additional centrifugation step, cells were resuspended in MS minimal medium supplemented with 0.5% glucose, 1 mM MgSO4, 0.4 mM L-leucine, 0.5 mM IPTG, 100 ng mL^−1 aTc and 0.5 mM sulfobutanoyl-p-nitroanilide or sulfobutanoyl-AMC (see below for description of synthesis) and incubated in a Tecan Infinite 200 Pro plate reader at 37° C. To monitor cell density and the release of 4-nitroaniline, absorbance was constantly measured at 600 nm and 410 nm. The release of AMC was monitored by measuring the fluorescence at λex=350 nm and λem=450 nm. To determine the influence of competition for the sulfonate transporter SsuABC, different concentrations of pentanesulfonate (Sigma Aldrich) were added to the medium.
smiles,measurement,setting,value
O=C(CCCS(=O)(=O)O)Nc1ccc([N+](=O)[O-])cc1 [sodium salt],hydrolysis of substrate,EcGGT ΔN24 D433N,acquired the ability to hydrolyze
same,hydrolysis of substrate by purified enzyme,PnGGT ΔN24,no detectable activity
same,improvement of catalytic efficiency (kcat/KM) over PnGGT*,PnGGT* P505T [1],39%
same,improvement of kcat over PnGGT*,PnGGT* P505T [1],8%
same,lower K (KM) over PnGGT*,PnGGT* P505T [1]; 50-2000 μM substrate,27%
same,activity towards substrate,PnGGT* D385Y,low activity
same,activity towards substrate compared to PnGGT*,PnGGT* P505T [2],elevated activity; also recorded: slightly elevated in vitro activity
same,Km,PnGGT ΔN24 D405N,767 µM
same,Vmax,PnGGT ΔN24 D405N,10.35 ± 0.28 µmol/min/mg
same,kcat,PnGGT ΔN24 D405N,10.2 s⁻¹
same,in vivo release of 4-nitroaniline from the compound,TK082,only released from the SBA moiety when SsuABC and PnGGT* were simultaneously synthesized
